What follows are compounds tested against T1, N-formyl peptide receptor 2 (Homo sapiens, UniProt P25090) (assay: concentration-dependent FPRL1 ligand displacement – cell-based, FPR counter-screen, fluorescent ligand, dose response (AID 520)).
T1 sequence (P25090 whole entry): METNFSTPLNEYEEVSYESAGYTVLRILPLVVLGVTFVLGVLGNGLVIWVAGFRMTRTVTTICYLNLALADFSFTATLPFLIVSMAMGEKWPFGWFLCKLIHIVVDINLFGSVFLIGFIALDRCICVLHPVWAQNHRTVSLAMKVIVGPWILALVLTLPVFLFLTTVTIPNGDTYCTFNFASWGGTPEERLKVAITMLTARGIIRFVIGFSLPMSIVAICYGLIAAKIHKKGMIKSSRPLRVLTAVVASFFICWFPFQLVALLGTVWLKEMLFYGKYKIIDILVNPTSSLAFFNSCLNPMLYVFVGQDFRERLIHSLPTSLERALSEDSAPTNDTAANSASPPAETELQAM
`O=C(NCCN1CCOCC1)NC1(C(F)(F)F)Oc2ccc(Cl)cc2O1` (centres undefined) showed an IC50 of over 66.7 µM.
Compound `CCn1cc(C(=O)NC2CCC(C)CC2)c(=O)c2cc(S(=O)(=O)N3CCCCC3)ccc21` (centres undefined) has an IC50 of over 66.7 µM.
`O=c1c2c(nc3c(-c4ccc(Cl)cc4)c[nH]n13)CCCC2` showed an IC50 of over 66.7 µM.
Compound `CCOC(=O)Cc1cc(=O)n2[nH]c(C)c(-c3ccccc3)c2n1` has an IC50 of over 66.7 µM.
Work on `N[C@@H](Cc1ccc(O)c(I)c1)C(=O)O` yielded an IC50 of over 66.7 µM.
`COC(=O)c1[nH]c(C)c(C(=O)C2C(=O)C(=O)N(CCN3CCOCC3)C2c2cccs2)c1C` (centres undefined) was tested, and the IC50 was over 66.7 µM and the Ki was over 40.3 µM.
Work on `CCCc1cc(=O)n2[nH]c(C)c(-c3ccccc3)c2n1` yielded an IC50 of over 66.7 µM.
Compound `CC1=NC(C)=C(C#N)C(c2ccc3ncccc3c2)C1C#N` (centres undefined) has an IC50 of over 66.7 µM and a Ki of over 40.3 µM.
`O=C(NC1CCCC1)c1sc(=S)n2c1[nH]c(=O)c1ccccc12` gave an IC50 of over 66.7 µM.
`CC(C)OC(=O)c1cc(NC(=O)C2C3CCC(O3)C2C(=O)O)cc(C(=O)OC(C)C)c1` (centres undefined) was tested, and the IC50 was over 66.7 µM.
Compound `CCN(C(=O)Cc1c(C(=O)O)[nH]c2ccccc12)c1cc(OC)ccc1OC` has an IC50 of over 66.7 µM.
`CCOC(=O)Cc1cc(=O)n2[nH]c(C)c(-c3ccc(OC)cc3)c2n1` gave an IC50 of over 66.7 µM.
`CCOC(=O)c1oc2cc(O)ccc2c(=O)c1-c1ccccc1OC` was tested, and the IC50 was over 66.7 µM.
Compound `Cc1nc2c(C#N)c(C)[nH]n2c(=O)c1Cc1ccccc1` has an IC50 of over 66.7 µM.
`CCOC(=O)c1c(-c2ccc(-c3ccccc3)cc2)csc1NC(=O)C1C2CCC(O2)C1C(=O)O` (centres undefined) gave an IC50 of over 66.7 µM.
Compound `Nc1ccc(Nc2ccccc2)cc1` has an IC50 of over 66.7 µM.
Compound `O=c1c(CC[S+]([O-])c2ccccc2)c(O)n(-c2ccccc2)n1-c1ccccc1` (centres undefined) [1,2-Diphenyl-3,5-dioxo-4-(2-phenylsulfinylethyl)pyrazolidine] has an IC50 of over 66.7 µM and a Ki of over 40.3 µM.
For `COC(=O)C1(S(=O)(=O)c2cccc3nsnc23)CC1` [1-(2,1,3-benzothiadiazol-4-ylsulfonyl)-1-cyclopropanecarboxylic acid methyl ester], the IC50 was over 66.7 µM.
`COc1cccc2cc(C(=O)C3C(=O)C(=O)N(Cc4ccco4)C3c3cccnc3)oc12` (centres undefined) [1-(2-furanylmethyl)-4-hydroxy-3-[(7-methoxy-2-benzofuranyl)-oxomethyl]-2-(3-pyridinyl)-2H-pyrrol-5-one] showed an IC50 of over 66.7 µM and a Ki of over 40.3 µM.
`COc1cc(C2C(C(=O)c3cccs3)C(=O)C(=O)N2Cc2ccco2)cc(OC)c1OC` (centres undefined) [1-(2-furanylmethyl)-4-hydroxy-3-[oxo(thiophen-2-yl)methyl]-2-(3,4,5-trimethoxyphenyl)-2H-pyrrol-5-one] showed an IC50 of over 66.7 µM and a Ki of over 40.3 µM.
For `O=C1C(=O)N(Cc2ccco2)C(c2ccccc2)C1C(=O)c1cccs1` (centres undefined) [1-(2-furanylmethyl)-4-hydroxy-3-[oxo(thiophen-2-yl)methyl]-2-phenyl-2H-pyrrol-5-one], the IC50 was over 66.7 µM and the Ki was over 40.3 µM.
Work on `COCCN1C(=O)C(=O)C(C(=O)c2cccs2)C1c1ccccc1` (centres undefined) [1-(2-methoxyethyl)-4-oxidanyl-2-phenyl-3-thiophen-2-ylcarbonyl-2H-pyrrol-5-one] yielded an IC50 of over 66.7 µM and a Ki of over 40.3 µM.
For `O=C1C(=O)N(CCN2CCOCC2)C(c2ccccc2)C1C(=O)c1cccs1` (centres undefined) [1-(2-morpholin-4-ylethyl)-4-oxidanyl-2-phenyl-3-thiophen-2-ylcarbonyl-2H-pyrrol-5-one], the IC50 was over 66.7 µM and the Ki was over 40.3 µM.
For `CCC(NC(=O)Nc1cc(OC)c(OC)c(OC)c1)(C(F)(F)F)C(F)(F)F` [1-(3,4,5-trimethoxyphenyl)-3-[1,1,1-tris(fluoranyl)-2-(trifluoromethyl)butan-2-yl]urea], the IC50 was over 66.7 µM.
In the case of `Cc1ccc(C(=O)C2C(=O)C(=O)N(CCCn3ccnc3)C2c2ccc(OC(C)C)cc2)o1` (centres undefined) [1-(3-imidazol-1-ylpropyl)-3-(5-methylfuran-2-yl)carbonyl-4-oxidanyl-2-(4-propan-2-yloxyphenyl)-2H-pyrrol-5-one], the IC50 is reported as over 66.7 µM and the Ki is reported as over 40.3 µM.
`CCCOc1ccc(C2C(C(=O)c3ccc(C)o3)C(=O)C(=O)N2CCCn2ccnc2)cc1` (centres undefined) [1-(3-imidazol-1-ylpropyl)-3-(5-methylfuran-2-yl)carbonyl-4-oxidanyl-2-(4-propoxyphenyl)-2H-pyrrol-5-one] gave an IC50 of over 66.7 µM and a Ki of over 40.3 µM.
For `CC(C)OC(=O)c1nnn(-c2nonc2N)c1CN1CCc2ccccc2C1` [1-(4-amino-1,2,5-oxadiazol-3-yl)-5-(3,4-dihydro-1H-isoquinolin-2-ylmethyl)-4-triazolecarboxylic acid propan-2-yl ester], the IC50 was over 66.7 µM.
Compound `CCCN=C(S)Nc1ccc(Nc2ccccc2)cc1` [1-(4-anilinophenyl)-3-propyl-thiourea] has an IC50 of over 66.7 µM.
For `CCOC(=O)C1CCN(Cc2ccc(C(=O)OC)cc2)CC1` [1-(4-carbomethoxybenzyl)isonipecotic acid ethyl ester], the IC50 was over 66.7 µM.
With `C=CCOc1ccc(C2C(C(=O)c3cccs3)C(=O)C(=O)N2c2nnc(C)s2)cc1` (centres undefined) [1-(5-methyl-1,3,4-thiadiazol-2-yl)-4-oxidanyl-2-(4-prop-2-enoxyphenyl)-3-thiophen-2-ylcarbonyl-2H-pyrrol-5-one] the IC50 was over 66.7 µM and the Ki was over 40.3 µM.
`O=C1C(=O)N(Cc2ccccc2)C(c2cccnc2)C1C(=O)c1ccco1` (centres undefined) [1-Benzyl-4-(furan-2-carbonyl)-3-hydroxy-5-pyridin-3-yl-1,5-dihydro-pyrrol-2-one] gave an IC50 of over 66.7 µM and a Ki of over 40.3 µM.
With `O=C1C(=O)N(Cc2ccccc2)C(c2ccncc2)C1C(=O)c1ccco1` (centres undefined) [1-Benzyl-4-(furan-2-carbonyl)-3-hydroxy-5-pyridin-4-yl-1,5-dihydro-pyrrol-2-one] the IC50 was over 66.7 µM and the Ki was over 40.3 µM.
`O=C1C(=O)N(Cc2ccccc2)C(c2ccco2)C1C(=O)c1ccco1` (centres undefined) [1-Benzyl-4-(furan-2-carbonyl)-5-furan-2-yl-3-hydroxy-1,5-dihydro-pyrrol-2-one] showed an IC50 of over 66.7 µM and a Ki of over 40.3 µM.
With `O=C1C(=O)N(CCOCCO)C(c2cccs2)C1C(=O)c1cccs1` (centres undefined) [1-[2-(2-hydroxyethyloxy)ethyl]-4-oxidanyl-2-thiophen-2-yl-3-thiophen-2-ylcarbonyl-2H-pyrrol-5-one] the IC50 was over 66.7 µM and the Ki was over 40.3 µM.
`COc1ccc(CCN2C(=O)C(=O)C(C(=O)c3ccco3)C2c2cccs2)cc1OC` (centres undefined) [1-[2-(3,4-Dimethoxy-phenyl)-ethyl]-4-(furan-2-carbonyl)-3-hydroxy-5-thiophen-2-yl-1,5-dihydro-pyrrol-2-one] gave an IC50 of over 66.7 µM and a Ki of over 40.3 µM.
Compound `OCc1nc2ccccc2n1CC(O)Cn1ccc2ccccc21` (centres undefined) [1-[2-(hydroxymethyl)-1-benzimidazolyl]-3-(1-indolyl)-2-propanol] has an IC50 of over 66.7 µM.
Compound `COc1ccc2nc(Nc3nc(C)c(C(C)=O)s3)sc2c1` [1-[2-[(6-methoxy-1,3-benzothiazol-2-yl)amino]-4-methyl-1,3-thiazol-5-yl]ethanone] has an IC50 of over 66.7 µM.
`CN1CCN(CCCNC(=O)Nc2cccc3ccccc23)CC1` [1-[3-(4-methyl-1-piperazinyl)propyl]-3-(1-naphthalenyl)urea] was tested, and the IC50 was over 66.7 µM.
`C=CCn1c(SCCCC)nc(O)cc1=O` [1-allyl-2-(butylthio)-6-hydroxy-pyrimidin-4-one] showed an IC50 of over 66.7 µM.
With `Cc1c(CNCc2cccs2)c(C(=O)O)c(C)n1Cc1ccccc1` [1-benzyl-2,5-dimethyl-4-[(2-thenylamino)methyl]pyrrole-3-carboxylic acid] the IC50 was over 66.7 µM.
`Cc1ccc(C(=O)C2C(=O)C(=O)N(Cc3ccccc3)C2c2cccnc2)o1` (centres undefined) [1-benzyl-3-hydroxy-4-[(5-methylfuran-2-yl)carbonyl]-5-(pyridin-3-yl)-2,5-dihydro-1H-pyrrol-2-one] was tested, and the IC50 was over 66.7 µM and the Ki was over 40.3 µM.
Work on `Cc1cccc(Nc2ccccc2C(=O)NCc2ccco2)c1C` [2-(2,3-dimethylanilino)-N-(2-furanylmethyl)benzamide] yielded an IC50 of over 66.7 µM.
Compound `COc1ccc(OC)c(C2C(C(=O)c3cccs3)C(=O)C(=O)N2c2cc(C)on2)c1` (centres undefined) [2-(2,5-dimethoxyphenyl)-1-(5-methyl-1,2-oxazol-3-yl)-4-oxidanyl-3-thiophen-2-ylcarbonyl-2H-pyrrol-5-one] has an IC50 of over 66.7 µM and a Ki of over 40.3 µM.
Compound `COc1ccc(OC)c(C2C(C(=O)c3ccco3)C(=O)C(=O)N2CCCN2CCOCC2)c1` (centres undefined) [2-(2,5-dimethoxyphenyl)-3-(furan-2-carbonyl)-4-hydroxy-1-(3-morpholin-4-ylpropyl)-2H-pyrrol-5-one] has an IC50 of over 66.7 µM and a Ki of over 40.3 µM.
With `CCCOc1ccc2c(=O)c(N3C(=O)c4ccccc4C3=O)c(C)oc2c1` [2-(2-methyl-4-oxidanylidene-7-propoxy-chromen-3-yl)isoindole-1,3-dione] the IC50 was over 66.7 µM.
`O=C1C(=O)N(c2ncccn2)C(c2ccc(Cl)c(Cl)c2)C1C(=O)c1ccco1` (centres undefined) [2-(3,4-dichlorophenyl)-3-(furan-2-carbonyl)-4-hydroxy-1-pyrimidin-2-yl-2H-pyrrol-5-one] showed an IC50 of over 66.7 µM and a Ki of over 40.3 µM.
Compound `COc1ccc(C2C(C(=O)c3cccs3)C(=O)C(=O)N2c2nnc(C)s2)cc1OC` (centres undefined) [2-(3,4-dimethoxyphenyl)-1-(5-methyl-1,3,4-thiadiazol-2-yl)-4-oxidanyl-3-thiophen-2-ylcarbonyl-2H-pyrrol-5-one] has an IC50 of over 66.7 µM and a Ki of over 40.3 µM.
`COc1ccc(C2C(C(=O)c3ccco3)C(=O)C(=O)N2CCc2ccccc2)cc1OC` (centres undefined) [2-(3,4-dimethoxyphenyl)-3-(furan-2-carbonyl)-4-hydroxy-1-(2-phenylethyl)-2H-pyrrol-5-one] showed an IC50 of over 66.7 µM and a Ki of over 40.3 µM.
Compound `COc1ccc(C2C(C(=O)c3ccco3)C(=O)C(=O)N2Cc2cccnc2)cc1OC` (centres undefined) [2-(3,4-dimethoxyphenyl)-3-(furan-2-carbonyl)-4-hydroxy-1-(pyridin-3-ylmethyl)-2H-pyrrol-5-one] has an IC50 of over 66.7 µM and a Ki of over 40.3 µM.
In the case of `COc1cc(C2C(C(=O)c3ccco3)C(=O)C(=O)N2c2cc(C)on2)cc(Br)c1O` (centres undefined) [2-(3-bromanyl-5-methoxy-4-oxidanyl-phenyl)-3-(furan-2-ylcarbonyl)-1-(5-methyl-1,2-oxazol-3-yl)-4-oxidanyl-2H-pyrrol-5-one], the IC50 is reported as over 66.7 µM and the Ki is reported as over 40.3 µM.
